Consider 1 substance from US10660933B2, “Compositions and methods for inhibition of bacterial infections in human endocervix” (priority 2015, dated 2020).

Experiment [1] deals with phosphorylated myosin light chain (pMLC). Kind of experiment: pMLC redistribution in Ng-inoculated human endocervical tissue explants. The settings on record: MS11ΔOpa-inoculated endocervical tissue explants, 24 h. The format is cell-based. How it is done: To explore the possibility of that Ng induced NMII redistribution occurs in vivo, we incubated human endocervical tissue explants with MS11ΔOpa for 24 h. Cryo-sections of the endocervical tissue were stained for pMLC, Ng and nuclei. In addition to its apical junction localization, pMLC was concentrated at the basal surface of the endocervical epithelial cells contacting with the basal membrane (FIG. 6A, upper panels). When incubated with MS11ΔOpa, there was a redistribution of pMLC from the basal to apical surface, resulting in a significant higher apical:lateral FIR in Ng inoculated tissue explants than that in no Ng control (FIG. 6), similar to what we observed in polarized T84 (FIGS. 5A and 5B) and HEC-1-B cells (FIG. 10). Furthermore, pMLC at the apical surface of the endocervical epithelial cells also concentrated at Ng adherent sites (FIG. 6A, second row, white arrows), but not at the membrane of cells neighboring exfoliating cells (FIG. 6A, second row, orange arrows). These observations confirm that Ng increase the relative amount of activated NMII at the apical surface of the endocervical epithelial cells in human tissue explants. […]
(§1) Immunofluorescence analysis of human endocervical tissue explants. […] The tissue was fixed, embedded in gelatin, cryopreserved, sectioned crossing the apical and basolateral surfaces of the epithelium, stained for ZO1 (BD Bioscience), pMLC (Cell Signaling Technology, Beverly, Mass.), and Ng (51) by specific antibodies, and nuclei by DAPI (Life Technologies, Carlsbad, Calif.), and analyzed using CFM (Zeiss LSM 710, Carl Zeiss Microscopy LLC, Oberkochen, Germany). […]
To quantify epithelial exfoliation, the number of Ng associated cells localized on the top of the epithelial monolayer (exfoliated) and the total number of Ng associated epithelial cells was counted by visual inspection in each randomly acquired image, to determine the percentage of exfoliated cells. To estimate the level of Ng penetration into the subepithelium, the number of non-exfoliated epithelial cells (in clearly visible epithelial monolayers) with basal Ng staining and the total number of Ng associated epithelial cells were visually counted to calculate the percentage of infected epithelial cells with Ng penetration into the basolateral side. To evaluate the disruption of the apical junction, the number of Ng associated epithelial cells that lost continuously apical staining of the junctional protein ZO1 and the total number of Ng associated epithelial cells were visually counted to calculate the percentage of Ng associated epithelial cells with apical junction disassembly. […]

Experiment [2] shares this test system. Kind of experiment: pMLC (active NMII) redistribution in Ng-inoculated polarized T84 cells (3D-CFM). The format is cell-based, human. How it is done:
Ng induce and Opa suppresses the redistribution of active non-muscle myosin II in polarized and endocervical epithelial cells. […] We examined the cellular distribution of active NMII after 6-h incubation with Ng, using antibody specific for phosphorylated myosin light chain (pMLC) and 3D-CFM. In uninfected polarized T84 (FIGS. 5A and 5C) and HEC-1-B cells (FIG. 10), pMLC was primarily localized at the apical junction. The polarized distribution of pMLC at the apical surface was quantified by the FIR of pMLC at the apical to the lateral (Apical:Lateral) membrane areas in individual cells using CFM images scanning across the apical and basolateral surfaces (FIGS. 5A and 5B). The polarized distribution pMLC at the apical junction was quantified by the FIR of pMLC at the junction to non-junction (Junction:Non-junction) areas of the apical region using CFM images scanning through the apical junction (FIGS. 5C and 5D). The apical inoculation of MS11Opa+ and MS11ΔOpa caused significant increases in apical:lateral FIR in both polarized T84 (FIGS. 5A and 5B) and HEC-1-B cells (FIG. 10), compared to the no Ng control. There were also significant increases in the junction:non-junction FIR in infected polarized T84 cells, compared to non-infected cells (FIGS. 5C and 5D). […] We further noticed that NMII at the apical surface appeared to accumulate at Ng adherent sites (FIG. 5A, middle panels, arrows).
(§2) Immunofluorescence analysis of polarized epithelial cells. Cells were pretreated with or without NMII kinase inhibitors, Y27632 (10 μM, EMD Millipore), ML-7 (10 μM, EMD Millipore) and PIK (100 μM) or Ca2+ inhibitors, 2APB (10 μM, EMD Millipore) and BAPTA (50 μM, EMD Millipore) for 1 h, and incubated with Ng in the presence or absence of the inhibitors for 6 h. Cell were washed and fixed with 4% paraformaldehyde, permeabilized with 1% Triton X100, and stained with anti-E-cadherin (BD Bioscience), anti-pMLC (Cell Signaling Technology, Carlsbad, Calif.), anti-Ng antibodies, and DAPI for nuclei. Cells were analyzed by CFM. Images were acquired as Z-series of 0.37 μm slices, and 3D composites obtained. Epithelial exfoliation will be quantified using xz images as described for the tissue explants. The distribution of E-cadherin and pMLC was quantitatively analyzed by measuring the FIR at the apical junctional to the cytoplasmic area (from xy images) or at the apical to lateral surface area (from xz images) in individual cells.

Experiment [3] concerns polarized T84 cells. Kind of experiment: Exfoliation of polarized T84 cells treated with inhibitors alone, without Ng. The experiment is classed as cell-based, human. The settings on record: no Ng inoculation, 6 h. How it is done: Polarized T84 cells were treated with inhibitors for 6 h, fixed, stained to visualize the cell nuclei, and imaged by 3D-CFM. The percentage of cell moving above the epithelial monolayer (dash lines) was determined from three independent experiments. Scale bar, 5 μm. *p≤0.05.
as §2

In experiment [4] the test system is Neisseria gonorrhoeae MS11ΔOpa. Kind of experiment: Ng subepithelial penetration in human endocervical tissue explants (3D-CFM). The experiment is classed as cell-based. How it is done:
(§3) Human endocervical tissue explants. The tissue explants were cultured as previously described. Endocervical tissues were obtained from patients undergoing voluntary hysterectomies and received within 24 h post-surgery. Samples were cut into ˜2.5 cm (L)×0.6 cm (W)×0.3 cm (H) pieces, incubated in CMRL-1066 (GIBCO, Gaithersburg, Md.) plus antibiotics for 24 h, and then switched to antibiotic-free media for 24 h.
Immunofluorescence analysis of human endocervical tissue explants. Individual endocervical tissue pieces were incubated with Ng at a MOI of ˜10 (based on the average number of endocervical epithelial cells in endocervical tissue pieces) in the presence or absence of the MLCK inhibitor ML-7 (10 μM, EMD Millipore) and PIK (100 μM) (54) on transwells for 24 h. Unassociated Ng were removed by extensive washes at 6 and 12 h. The tissue was fixed, embedded in gelatin, cryopreserved, sectioned crossing the apical and basolateral surfaces of the epithelium, stained for ZO1 (BD Bioscience), pMLC (Cell Signaling Technology, Beverly, Mass.), and Ng (51) by specific antibodies, and nuclei by DAPI (Life Technologies, Carlsbad, Calif.), and analyzed using CFM (Zeiss LSM 710, Carl Zeiss Microscopy LLC, Oberkochen, Germany). […]
To quantify epithelial exfoliation, the number of Ng associated cells localized on the top of the epithelial monolayer (exfoliated) and the total number of Ng associated epithelial cells was counted by visual inspection in each randomly acquired image, to determine the percentage of exfoliated cells. To estimate the level of Ng penetration into the subepithelium, the number of non-exfoliated epithelial cells (in clearly visible epithelial monolayers) with basal Ng staining and the total number of Ng associated epithelial cells were visually counted to calculate the percentage of infected epithelial cells with Ng penetration into the basolateral side. […] To quantify the redistribution of pMLC, the fluorescence intensity ratios (FIR) of pMLC staining at the apical to lateral in individual epithelial cells were determined using average FI as previously described.

Experiment [5] relates to polarized T84 cells. The experiment can be described thus: Ng-induced exfoliation of polarized T84 monolayers (3D-CFM). The format is cell-based, human. The note with it: MS11ΔOpa, 6 h; inhibitor 1 h before and during; ML-7 10 μM, PIK 100 μM, Y27632 10 μM, 2APB 10 μM.
Description: To quantify epithelial exfoliation, the number of Ng associated cells localized on the top of the epithelial monolayer (exfoliated) and the total number of Ng associated epithelial cells was counted by visual inspection in each randomly acquired image, to determine the percentage of exfoliated cells. To estimate the level of Ng penetration into the subepithelium, the number of non-exfoliated epithelial cells (in clearly visible epithelial monolayers) with basal Ng staining and the total number of Ng associated epithelial cells were visually counted to calculate the percentage of infected epithelial cells with Ng penetration into the basolateral side. To evaluate the disruption of the apical junction, the number of Ng associated epithelial cells that lost continuously apical staining of the junctional protein ZO1 and the total number of Ng associated epithelial cells were visually counted to calculate the percentage of Ng associated epithelial cells with apical junction disassembly. To quantify the redistribution of pMLC, the fluorescence intensity ratios (FIR) of pMLC staining at the apical to lateral in individual epithelial cells were determined using average FI as previously described.
as §2

For experiment [6], the system named is Neisseria gonorrhoeae MS11. Kind of experiment: Ng adherence, invasion, and transmigration assays on polarized epithelial cells. The format is cell-based. How it is done:
Ng adherence, invasion, and transmigration assays. The assays were performed as previously described. Briefly, polarized epithelial cells that were pretreated with or without the inhibitors for 1 h were incubated apically with Ng at 37° C. for 3 h for adherence and 6 h for invasion and transmigration assays with or without the inhibitors. Ng in the basolateral media were cultured and counted as transmigrated bacteria. Cells were washed and lysed to count adherent Ng. Cells were treated with gentamicin, washed, and lysed to count bacteria that were resistant to gentamicin treatment as invaded Ng.

Experiment [7] concerns human endocervical tissue explants. Kind of experiment: Ng-induced epithelial exfoliation of human endocervical tissue explants (3D-CFM). The experiment is classed as cell-based. The note with it: MS11ΔOpa, 24 h; ML-7 10 μM, PIK 100 μM. As for the experimental part: as §3, §1
To quantify epithelial exfoliation, the number of Ng associated cells localized on the top of the epithelial monolayer (exfoliated) and the total number of Ng associated epithelial cells was counted by visual inspection in each randomly acquired image, to determine the percentage of exfoliated cells. […] To quantify the redistribution of pMLC, the fluorescence intensity ratios (FIR) of pMLC staining at the apical to lateral in individual epithelial cells were determined using average FI as previously described.

The next experiment concerns Neisseria gonorrhoeae. The experiment can be described thus: Ng growth. The experiment is classed as cell-based. The settings on record: FIG. 13.

Entries after “also recorded” stand apart in the source; their conditions may differ. Ends that are not written are not given here.

As for “PIK: peptide MLCK inhibitor comprising SEQ ID NO:1 (lys-arg-arg-tyr-lys-tyr-lys-lys-arg) with at least one D-amino acid; from U.S. Pat. No. 7,585,844 (KRRYKYKKR; also: at least one D-amino acid, places not given here)”, the “pMLC accumulation at Ng adherent sites” value in experiment [1] is recorded as “significantly reduced”. Further, the “apical:lateral FIR of pMLC” value was “significantly reduced” in experiment [1] (ML-7 10 μM, PIK 100 μM) and “significantly reduced” in experiment [2] (polarized T84, Ng 6 h, ML-7 10 μM, PIK 100 μM, Y27632 10 μM, 2APB 10 μM, BAPTA 50 μM). The “accumulation of pMLC at Ng adherent sites” value in experiment [2] (polarized T84, Ng 6 h) is recorded as “significantly reduced”. The “junction:non-junction FIR of pMLC” value in experiment [2] (polarized T84, Ng 6 h (Y27632: MS11ΔOpa), ML-7 10 μM, PIK 100 μM, Y27632 10 μM, 2APB 10 μM, BAPTA 50 μM) was “significantly reduced”. Moreover, the “epithelial exfoliation with inhibitors alone” value with polarized T84 cells [3] was “did not affect epithelial exfoliation”. Besides, the “Ng penetration into human endocervical epithelia” value in experiment [4] (FIG. 12A-B) was “inhibits Ng penetration; also recorded: robust inhibition”. The “percentage of epithelial cells with basally associated Ng” value in experiment [4] (MS11ΔOpa, 24 h, ML-7 10 μM or PIK 100 μM, 27% without inhibitor) is given as 7.1%. The “exfoliation of MS11ΔOpa-infected epithelial cells from T84 monolayers” value in the experiment on polarized T84 cells [5] was “reduced the exfoliation”. For the same substance, the “transmigration of MS11ΔOpa across the polarized T84 monolayer” value in experiment [6] (6 h, ML-7 10 μM, PIK 100 μM, 2APB 10 μM, Y27632 10 μM) is “significantly reduced the transmigration”. In addition, in experiment [6] (FIG. 12C), the “Ng trans-migration across polarized human epithelial cells” value was “inhibits”. Further, in experiment [6] (MS11ΔOpa, 3 h, with inhibitors), the “Ng adherence to polarized T84 cells” value is reported as “none of these inhibitors had any significant effect”. For the same substance, the “Ng invasion into polarized T84 cells (gentamicin resistance)” value in experiment [6] (MS11ΔOpa, 6 h, with inhibitors) was “none of these inhibitors had any significant effect”. Moreover, the “epithelial exfoliation of human endocervical tissue explants” value in experiment [7] was “decreased the epithelial exfoliation of human endocervical tissue explants to the basal level”. Moreover, in the experiment with Neisseria gonorrhoeae, the Ng growth entry is given as “suppresses Ng growth”.
